Test results from patent publication US7902197B2, “Pyrrolopyrazine kinase inhibitors” (Roche Palo Alto LLC, priority 2008, dated 2011).

Assays:
[1] = biological target: JAK3: Recombinant human kinase domain (Homo sapiens, UniProt P52333); experiment: Determination of IC50 of Janus Kinase (JAK) inhibition, radioactive end-point 33P-ATP assay, JAK3; type: biochemical; conditions: 0.5 nM or 0.2 nM JAK3, ATP 1.5 uM, peptide 50 uM, 20 minutes; read-out: IC50 h-jak3-sf21-c
From the text: (§1) Determination of IC50 of Janus Kinase (JAK) Inhibition: […]

[2] = biological target: JAK2: Recombinant human kinase domain (Homo sapiens, UniProt O60674); experiment: Determination of IC50 of Janus Kinase (JAK) inhibition, radioactive end-point 33P-ATP assay, JAK2; type: biochemical; conditions: 1 nM JAK2, ATP 1.5 uM, peptide 50 uM, 20 minutes; read-out: IC50 h-jak2-sf21-c
Sequence of JAK2: Recombinant human kinase domain (O60674 849-1124 limits assumed): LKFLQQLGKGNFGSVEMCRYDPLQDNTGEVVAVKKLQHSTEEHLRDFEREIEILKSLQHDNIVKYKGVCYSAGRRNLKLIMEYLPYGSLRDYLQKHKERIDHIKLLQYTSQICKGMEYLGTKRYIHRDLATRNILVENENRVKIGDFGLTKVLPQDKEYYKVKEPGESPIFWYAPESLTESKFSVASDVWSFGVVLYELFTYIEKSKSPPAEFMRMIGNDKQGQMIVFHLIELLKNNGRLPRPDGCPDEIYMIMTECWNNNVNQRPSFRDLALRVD
From the text: as §1

Sequence of JAK3: Recombinant human kinase domain (P52333 822-1111 limits assumed): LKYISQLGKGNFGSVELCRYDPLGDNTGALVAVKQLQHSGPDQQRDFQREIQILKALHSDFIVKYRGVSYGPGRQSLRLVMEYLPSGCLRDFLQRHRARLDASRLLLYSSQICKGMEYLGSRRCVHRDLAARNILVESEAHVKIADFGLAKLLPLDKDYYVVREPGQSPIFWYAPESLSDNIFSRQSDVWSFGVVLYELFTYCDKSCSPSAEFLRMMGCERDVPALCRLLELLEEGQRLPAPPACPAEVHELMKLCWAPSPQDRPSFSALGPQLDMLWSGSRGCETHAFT

SMILES | melting point [°C] | IC50 [1] [nM] | IC50 [2] [nM]
CC(C)NC(=O)c1c[nH]c2ncc(N(C)C3CCCC3)nc12 [Compound I-1, 2-(Cyclopentyl-methyl-amino)-5H-pyrrolo[2,3-b]pyrazine-7-carboxylic acid isopropylamide] | 277 to 278 | 59.2 | 129
CC(C)(C)C(=O)c1cnc2[nH]cc(C(=O)C(C)(C)C)c2n1 [Compound I-2, 1-[7-(2,2-Dimethyl-propionyl)-5H-pyrrolo[2,3-b]pyrazin-2-yl]-2,2-dimethyl-propan-1-one] | 188 to 198 |  | 
CC(C)(C)C(=O)c1c[nH]c2ncc(C(=O)NC3CCCC3)nc12 [Compound I-15, 7-(2,2-Dimethyl-propionyl)-5H-pyrrolo[2,3-b]pyrazine-2-carboxylic acid cyclopentylamide] | 237.9 to 241.5 |  | 
CN1CCN(c2ccc(Nc3cnc4[nH]cc(C(=O)C(C)(C)C)c4n3)cc2)CC1 [Compound I-34, 2,2-Dimethyl-1-{2-[4-(4-methyl-piperazin-1-yl)-phenylamino]-5H-pyrrolo[2,3-b]pyrazin-7-yl}-propan-1-one] |  | 471 | 
CN1CCN(c2cccc(Nc3cnc4[nH]cc(C(=O)C(C)(C)C)c4n3)c2)CC1 [Compound I-35, 2,2-Dimethyl-1-{2-[3-(4-methyl-piperazin-1-yl)-phenylamino]-5H-pyrrolo[2,3-b]pyrazin-7-yl}-propan-1-one] |  | 498 | 
